Molecules are shown by their SMILES.

As a reminder, the melting point is the temperature, or range, at which the solid turns liquid.

The compound `CS(=O)(=O)c1c(C(=O)NN=Cc2nccs2)[nH]c2ccccc12` yielded a melting point above 280 °C. `O=C(O)CCCCc1nc(NCc2ccc3c(c2)OCO3)c2cc(Cl)sc2n1` yielded a melting point of 130 °C. `CCCCC1(c2cccc(O)c2)CCCCN(C)C1=O` (stereo unspecified): the melting point lay within 138 to 142 °C. With `Nc1ccc(-c2n[nH]c3c2Cc2ccccc2-3)cc1`, the melting point is 253 to 254 °C. The value for `Cc1nc(N)sc1S(=O)(=O)NCCN(C)C` was 153 °C. For the compound `CCOC(=O)c1cc(-n2c(=O)cc[nH]c2=O)ccc1Cl`, the melting point is 170 to 172 °C. `C#CCOc1cccc(-c2nc3ncccc3[nH]2)c1OC` gave a melting point of 262 °C.

Take `CCOC(=O)COc1ccc2cc(-c3cc4ccccc4s3)ccc2c1Br`: the melting point lay within 178 to 181 °C.

For `CCCCCCC(=O)CC(=O)c1ccccc1`, the melting point is 14 °C. Compound `C=Cc1nc(C(C)C)c(Sc2cc(Cl)cc(Cl)c2)n1C` came in with a melting point of 124 to 125 °C. For the compound `C=C1CC2C(CCC3(C)C2CCC3(OC(C)=O)C(C)=O)C2(C)C1=CC(=O)CC2CCl` (stereo unspecified), the melting point was in the range of 190 to 192 °C. With `COc1cc(CCNC(=O)N(C)O)cc(OC)c1`, the melting point was 121 to 123 °C.

The compound `O=C(O)C(Cl)=C(Cl)C(O)=NCCc1ccc([N+](=O)[O-])cc1` gave a melting point of 166 °C. The same measure for `CC#CCOc1ccc(S(=O)(=O)C(C(=O)NO)c2ccc(-c3cccs3)cc2)cc1` (stereo unspecified): 175 °C; for `Cc1ccc2c(n1)sc1c(=O)n(C)nnc12`: 169 to 171 °C; for `CCCCCCCCNC(=O)OC1CCN(C(=O)Oc2ccc(Oc3ccccc3)cc2)CC1`: 73 to 75 °C. As for `O=c1[nH]c2ccc(Cl)cc2n1CCCl`, the melting point amounted to 164 °C. `Ic1ccc(OCCCCCCCN2CC2)nc1`: the melting point was in the range of 41 to 45 °C. As to `O=C1CC(c2ccccc2)CC(=O)O1`, the melting point was in the range of 102 to 103 °C. For `COc1cc(O)ccc1/C=C/c1ccc(O)cc1`, the melting point was 192 to 194 °C. The compound `O=C(O)Cc1c(-c2ccco2)nn(-c2ccccc2)c1-c1ccco1` gave a melting point of 199 to 202 °C. For `O=C(Nc1c[nH]nc1C(=O)NCc1ccc(-c2ccccc2)cc1)c1ccccn1`, the melting point fell in the range of 227 to 228 °C. On to `CN(C)C=C1CN=C(c2ccccc2Cl)c2ccccc2C1=O`, for which the melting point was in the range of 155 to 157 °C. With `Cn1c(CCN2CCC(c3ccccc3)CC2)nc2cc(Br)c3ccccc3c21`, the melting point was in the range of 182 to 184 °C. Regarding `Cc1cc(C)c(C)c(COc2cccc(-c3ccoc3C(=O)NNC(=O)c3ccc(O)c([N+](=O)[O-])c3)c2)c1C`, the melting point lay within 140 to 142 °C. The same measure for `O=S1(=O)N=CNc2ccc(F)cc21`: 260 to 263 °C; for `CCOc1csc(NC(C)=O)c1C#N`: 242 to 243 °C. As to `COc1ccc2c(C3=C(c4cn(C)c5cc([N+](=O)[O-])ccc45)C(=O)NC3=O)cn(C)c2c1`, the melting point lay within 308 to 310 °C. Compound `CC(=O)c1ccc2c(c1)CCc1ccc(C(=O)O)cc1S2(=O)=O` registered a melting point of 219 to 221 °C.

`Cn1ncnc1COc1nn2c(-c3ccccc3)nnc2cc1C1CCCCC1` had a melting point of 192 °C. In the case of `Cc1ccc(-c2nc(C(F)(F)F)nc(Cl)c2-c2ccccc2)cc1`, the melting point was in the range of 97 to 100 °C. `CCc1c(Oc2ccc([N+](=O)[O-])cc2C(F)(F)F)nn(C(=O)NC)c1C` displayed a melting point of 96 to 97 °C. Compound `CCC(CO)Nc1c(-c2c(F)cc(F)cc2F)c(Cl)nc2ncnn12` (stereo unspecified) displayed a melting point of 76 to 77 °C. Turning to `CC(NC(=O)C(F)(F)F)C(=O)O` (stereo unspecified), the melting point stood at 68 °C. The compound `COc1cc2c(c3c1OC(C)(C)C3)C(c1cccc(N(C(N)=O)c3cccnc3)c1)=NC(C)(C)C2` came in with a melting point of 168 to 169 °C. Regarding `C=Cc1cc(CCNc2ncnc3c(F)ccc(F)c23)ccc1Oc1cc(C(F)(F)F)ccn1`, the melting point is 86 °C. Consider `COc1cc2c(cc1C(F)(F)F)N(C(=O)Nc1cc(Br)c(C)c(-c3cccnc3)c1)CC2`, for which the melting point fell in the range of 216 to 218 °C.

Compound `CC(=O)N(c1cc2occc(=O)c2cc1Oc1ccc(F)cc1F)S(C)(=O)=O` displayed a melting point of 176 to 178 °C. Take `CCCc1nn(-c2ccc(C(F)(F)F)cn2)cc1CCCOc1c(CC)cccc1CC(=O)O`: the melting point lay within 146 to 147 °C. As to `COC(=O)c1cc(C#N)cn1CC(=O)c1ccccc1`, the melting point was 169 to 172 °C.

With `O=c1c(Cl)c(Cl)cnn1-c1ccc([N+](=O)[O-])cc1`, the melting point came out at 221 °C. The same measure for `O=C(O)[C@@H]1C[C@H](OS(=O)(=O)C2CCCCC2)CN1C(=O)c1ccccc1`: 154 to 172 °C. In the case of `Cc1oc(CCOc2ccc(CC3SC(=N)NC3=O)cc2)nc1CC(C)C` (stereo unspecified), the melting point fell in the range of 167 to 168 °C. `C[C@H](NC(=O)OCc1ccccc1)C(=O)c1ccc(OCc2ccccc2)cc1`: the melting point is 89 to 91 °C. Compound `CC1CCN(C(=O)NCCc2ccc(S(=O)(=O)NC(=O)NC3CCC(C)C3)cc2)C(=O)C1` (stereo unspecified) showed a melting point of 145 to 147 °C.

`CC(=O)c1cc(-c2ccc(S(C)(=O)=O)cc2)c(-c2ccc(F)cc2)s1`: the melting point lay in the range of 169 to 172 °C. Consider `CC(C)(CCCC(=O)O)c1cc(C(=O)O)c(O)c(C(C)(C)CCCC(=O)O)c1`, for which the melting point lay in the range of 161 to 163 °C. Compound `CCCCc1ncc(/C=C(\Cc2cccs2)C(=O)O)n1Cc1ccc(C=CC(=O)O)cc1` returned a melting point of 199 to 203 °C.

On to `Cc1c[nH]c2c1C(=O)CC(c1ccccc1F)C2` (stereo unspecified), for which the melting point fell in the range of 198 to 200 °C. The same measure for `O=C(O)CCCCN(C(=O)c1ccc(Cl)cc1)c1cccc2ccccc12`: 169 to 170 °C.

Turning to `Cc1ccc(-c2ccc3c(c2)C=C(C(=O)Nc2ccc(CNc4ccccn4)cc2)CCO3)cc1`, the melting point lay in the range of 189 to 190 °C. `O=C(O)CCC(=O)c1ccc(-c2ccc(F)cc2)cc1` registered a melting point of 174 to 176 °C. `CCc1c(Oc2cc(C)cc(C)c2)[nH]c(=O)[nH]c1=O` gave a melting point of 91 to 92 °C. As to `CCCCCCCNCCCCCCCCSc1nc(-c2ccccc2)c(-c2ccccc2)[nH]1`, the melting point lay within 87 to 89 °C.

`COCC(=O)Nc1c(C(=O)c2cccc(C)c2)[nH]c2cc(Cl)ccc12` yielded a melting point of 155 to 157 °C. With `CN[C@@H](CSC(c1ccccc1)(c1ccccc1)c1ccccc1)C(=O)O`, the melting point was 114 °C. In turn, `CCCCOc1c(CNC(=O)OC(C)(C)C)n(CC(C)C)c(=O)c2ccc(-c3noc(C)n3)cc12` showed a melting point of 152 °C. For `Cc1nc(-c2ccccc2)nc(-c2ccc([N+](=O)[O-])cc2)c1C(C)O` (stereo unspecified), the melting point fell in the range of 146 to 148 °C. `CN(C)c1ccc(-c2nc3cccnc3o2)cc1`: the melting point lay within 168 to 170 °C. In the case of `COC(=O)CC(O)CP(=O)(C#Cc1c(C(C)C)c2n(c1-c1ccc(F)cc1)CCCC2)OC` (stereo unspecified), the melting point is 100 to 101 °C.

In turn, `CCC(=O)C1=C(O)CC(c2ccc3sccc3c2)CC1=O` (stereo unspecified) came in with a melting point of 134 °C. As for `CCCCc1ncc(/C=C(\Cc2cccs2)C(=O)O)n1Cc1ccc(C(=O)O)cc1[N+](=O)[O-]`, the melting point turned out to be 163 °C. Compound `Cc1n[nH]c2cc(-c3nn(C(C)c4oc5ccc(F)cc5c(=O)c4-c4ccccc4)c4ncnc(N)c34)ccc12` (stereo unspecified) had a melting point of 253 to 255 °C.

As for `O=C(Nc1ccc(CCCCC2(C(=O)NCC(F)(F)F)c3ccccc3-c3ccccc32)nc1)c1ccccc1`, the melting point lay in the range of 109 to 113 °C. The value for `COCc1c(C=O)ncc2[nH]c3cccc(Cc4ccc(Cl)cc4)c3c12` was 248 to 250 °C; that for `O=C1CCCc2ccc(Nc3ncc(Cl)c(Nc4ccccc4S(=O)(=O)N4CCCC4)n3)cc2N1` was 249 to 251 °C; that for `CC(=O)NNC(=O)c1ccc(Br)c(C)c1` was 186 to 187 °C. `CC1(C)C(=O)N(c2ccc([N+](=O)[O-])c(C(F)(F)F)c2)C(=O)N1CCCCCCCN1C(=O)N(c2ccc([N+](=O)[O-])c(C(F)(F)F)c2)C(=O)C1(C)C` returned a melting point of 137 to 138 °C. Compound `Cc1[nH]cnc1C=C1CCc2c(C)c3ccccc3n2C1=O` gave a melting point of 252 to 255 °C. With `CN1CCC(N2C(=O)CN=C(c3ccccc3Cl)c3cc(Cl)ccc32)CC1`, the melting point was in the range of 146 to 147 °C. Consider `O=c1c(CCc2cccnc2)cc2cccnc2n1-c1cccc([N+](=O)[O-])c1`, for which the melting point was 221 to 223 °C. The value for `COC(=O)CCCOc1ccc2nc3[nH]c(=O)[nH]c3cc2c1` was 299 to 301 °C.

With `CCCCc1c(Cl)nc(C)nc1Cl`, the melting point fell in the range of 50 to 51 °C. Regarding `Cn1c(=O)c(C(=O)C2=C(O)CCCC2=O)nc2ccccc21`, the melting point lay within 191 to 192 °C. `COC(=O)C(=O)c1ccc(OCOc2ccccc2)cc1`: the melting point lay within 52 to 54 °C.

In turn, `Nc1ccc(C2CCSCC2)cc1` gave a melting point of 103 to 106 °C. `CC(C)(C)OC(=O)Nc1ccc(C#Cc2ccc(OC(F)(F)F)cc2)cc1NC(=O)CC(=O)c1cccc(C#N)c1` returned a melting point of 152 to 154 °C.

Take `O=C(O)CCc1cn(Cc2ccc(OCc3csc(-c4ccco4)n3)cc2)cc1-c1ccccc1`: the melting point fell in the range of 114 to 115 °C.

On to `O=C(O)COc1ccc2cc(CNC(=O)c3cnn(-c4ccc(Cl)cc4)c3C(F)(F)F)ccc2c1Br`, for which the melting point is 245 °C.

`CCN1C(=O)c2sccc2N(C)c2ncccc21` displayed a melting point of 119 to 120 °C. `Nc1nc(-c2ccnc(-c3ccc(C(=O)NC4CCOCC4)cc3)c2)c(-c2ccccn2)s1` had a melting point of 268 °C. For the compound `O=S(=O)(c1cc(-c2ccc(F)cc2)c(-c2ccc(F)cc2)s1)C(F)(F)F`, the melting point fell in the range of 104 to 106 °C. The value for `CNC(=O)c1ccccc1Nc1nc(Nc2ccc3c(c2)OCCN(C)C3=O)ncc1Cl` was 288 to 289 °C; that for `Cc1ccc(Oc2cccc(NC(=O)c3ccn4c3CSC4c3cccnc3)c2)cc1` (stereo unspecified) was 110 °C. `O=C(Nc1cccc(S(=O)(=O)Nc2ccccc2)c1)c1cnn2c(C(F)(F)F)cc(-c3ccc(C(F)(F)F)cc3)nc12` had a melting point of 258 °C. Turning to `Cc1nc(-c2ccc(C#N)cc2)cn1-c1ccc(C#N)cc1`, the melting point lay in the range of 212 to 220 °C.

These data come from a melting point compilation (Tetko et al.; mined from patent text by program, amines drawn as free bases though some values may be those of a salt).
